These results are taken from PubChem BioAssay AID328 (DTP/NCI, 2004).

The subject of this assay is BDF1 mice, P388 leukemia ip, median survival T/C. Briefly: NCI In Vivo Anticancer Drug Screen. Data for tumor model P388 Leukemia (intraperitoneal) in B6D2F1 (BDF1) mice. The following applies: endpoint: median survival time, higher = longer survival. Put shortly: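 Transplantable tumour in mice; compound vs vehicle dosing; survival scored; ratio of treated to control reported.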

[1] abbreviates: dose: 15.0 mg/kg/injection, schedule: Q01DX009 (ip), vehicle: saline with Tween-80.
[2] abbreviates: dose: 30.0 mg/kg/injection, schedule: Q01DX009 (ip), vehicle: saline with Tween-80.
Setting [3] is: dose: 1.56 mg/kg/injection, schedule: Q01DX009 (ip), vehicle: saline with Tween-80.
The mark [4] stands for this setting: dose: 6.25 mg/kg/injection, schedule: Q01DX009 (ip), vehicle: saline with Tween-80.
Setting [5] is: dose: 12.5 mg/kg/injection, schedule: Q01DX009 (ip), vehicle: saline with Tween-80.
[6] abbreviates: dose: 50.0 mg/kg/injection, schedule: Q01DX009 (ip), vehicle: saline with Tween-80.
The mark [7] stands for this setting: dose: 100.0 mg/kg/injection, schedule: Q01DX009 (ip), vehicle: saline with Tween-80.
Setting [8] is: dose: 200.0 mg/kg/injection, schedule: Q01DX009 (ip), vehicle: saline with Tween-80.
[9] abbreviates: dose: 12.5 mg/kg/injection, schedule: Q01DX009 (ip), vehicle: saline.
Setting [10] is: dose: 25.0 mg/kg/injection, schedule: Q01DX009 (ip), vehicle: saline.
Where [11] appears, read: dose: 25.0 mg/kg/injection, schedule: Q01DX009 (ip), vehicle: saline with Tween-80.
The mark [12] stands for this setting: dose: 100.0 mg/kg/injection, schedule: Q04DX003 (ip), vehicle: saline with Tween-80.
[13] abbreviates: dose: 200.0 mg/kg/injection, schedule: Q04DX003 (ip), vehicle: saline with Tween-80.

Values joined by “and” are separate entries in the source; they are usually repeats but may differ in a detail not shown here. Identical values can stand only once. Inconclusive results and toxic doses are left out. Non-standard residues stand in square brackets, D forms with d. Residues, ends and D or L forms follow the SMILES beside them. *: point of attachment. Nle = CCCC[CH](N)C(=O)O; Cbz = O=C(OCc1ccccc1)*; OBn = c1ccc(CO*)cc1

Consider `COc1ccc(Cl)cc1NC(=O)Nc1c(C)n(C)n(-c2ccccc2)c1=O`, for which the T/C was 100 % of control (dose: 100.0 mg/kg/injection, schedule: Q01DX001 (ip), vehicle: Klucel (hydroxypropylcellulose) (HPC)); 100 % of control (dose: 200.0 mg/kg/injection, schedule: Q01DX001 (ip), vehicle: Klucel (hydroxypropylcellulose) (HPC)); 95 % of control (dose: 400.0 mg/kg/injection, schedule: Q01DX001 (ip), vehicle: Klucel (hydroxypropylcellulose) (HPC)).

Consider `COc1ccc(NC2=CC(=O)C(=O)C=C2Nc2ccc(OC)cc2)cc1`, for which the T/C was 93 % of control under setting [1]; 93 % of control under setting [2]; 91 % of control (dose: 60.0 mg/kg/injection, schedule: Q01DX009 (ip), vehicle: saline with Tween-80).

On to `Clc1ccc(NC2=NCCN=C(Nc3ccc(Cl)cc3)SS2)cc1`, for which the T/C by setting is: (dose: 50.0 mg/kg/injection, schedule: Q01DX009 (ip), vehicle: Klucel (hydroxypropylcellulose) (HPC)) 91 % of control; (dose: 100.0 mg/kg/injection, schedule: Q01DX009 (ip), vehicle: Klucel (hydroxypropylcellulose) (HPC)) 91 % of control.

On to `CCc1cccc(CC)c1N1C(=O)C=CC1=O`, for which the T/C under setting [3] was 114 % of control; the T/C (dose: 3.13 mg/kg/injection, schedule: Q01DX009 (ip), vehicle: saline with Tween-80) was 100 % of control; the T/C under setting [4] is 106 % of control; the T/C under setting [5] was 99 % of control.

For `O=[N+]([O-])c1ccc(S(=O)(=O)c2ccc([N+](=O)[O-])c3no[n+]([O-])c23)cc1`, the T/C under setting [1] was 100 % of control and the T/C under setting [2] is 90 % of control.

Take `CCCCC(NC(=O)C1CCCN1C(=O)OCc1ccccc1)C(=O)OCc1ccccc1` (stereo not drawn) (Cbz-Pro-[Nle]-OBn; configuration not given here): the T/C reads like this: (dose: 50.0 mg/kg/injection, schedule: Q01DX005 (ip), vehicle: saline with Tween-80) 88 % of control; (dose: 100.0 mg/kg/injection, schedule: Q01DX005 (ip), vehicle: saline with Tween-80) 101 % of control; (dose: 200.0 mg/kg/injection, schedule: Q01DX005 (ip), vehicle: saline with Tween-80) 97 % of control.

Regarding `CC=NC(C[S-])C(=O)O.CC=NC(C[S-])C(=O)O.[Fe+2]` (stereo not given), the T/C runs as follows: under setting [6], 110 % of control; under setting [7], 100 % of control and 105 % of control; under setting [8], 100 % of control and 104 % of control.

`CCCCCCCCN(N)C12CC3CC(CC(C3)C1)C2`: the T/C is 116 % of control under setting [9]; 90 % of control (dose: 12.5 mg/kg/injection, schedule: Q04DX003 (ip), vehicle: saline); 119 % of control under setting [10]; 100 % of control (dose: 25.0 mg/kg/injection, schedule: Q04DX003 (ip), vehicle: saline); 94 % of control (dose: 50.0 mg/kg/injection, schedule: Q04DX003 (ip), vehicle: saline); 100 % of control (dose: 100.0 mg/kg/injection, schedule: Q04DX003 (ip), vehicle: saline).

Regarding `c1ccc(N=N/C(=N\Nc2ccccc2)SCCS/C(N=Nc2ccccc2)=N/Nc2ccccc2)cc1`, the T/C is, setting by setting: under setting [11], 99 % of control; under setting [6], 99 % of control; under setting [7], 121 % of control.

As for `CCOC(=O)CNC(=O)CCCCSc1ncnc2nc[nH]c12`, the T/C is 97 % of control and 98 % of control (dose: 20.0 mg/kg/injection, schedule: Q01DX009 (ip), vehicle: Klucel (hydroxypropylcellulose) (HPC)); 91 % of control (dose: 40.0 mg/kg/injection, schedule: Q01DX009 (ip), vehicle: Klucel (hydroxypropylcellulose) (HPC)); 101 % of control and 111 % of control (dose: 80.0 mg/kg/injection, schedule: Q01DX009 (ip), vehicle: Klucel (hydroxypropylcellulose) (HPC)); 89 % of control and 100 % of control (dose: 160.0 mg/kg/injection, schedule: Q01DX009 (ip), vehicle: Klucel (hydroxypropylcellulose) (HPC)); 87 % of control and 89 % of control (dose: 320.0 mg/kg/injection, schedule: Q01DX009 (ip), vehicle: Klucel (hydroxypropylcellulose) (HPC)); 86 % of control (dose: 640.0 mg/kg/injection, schedule: Q01DX009 (ip), vehicle: Klucel (hydroxypropylcellulose) (HPC)).

In the case of `Nc1ccc(OCCCCNC(=O)c2ccc(S(=O)(=O)F)cc2)c(Cl)c1`, the T/C is 94 % of control (dose: 0.78 mg/kg/injection, schedule: Q01DX009 (ip), vehicle: saline with Tween-80); 111 % of control under setting [3]; 102 % of control (dose: 3.12 mg/kg/injection, schedule: Q01DX009 (ip), vehicle: saline with Tween-80); 100 % of control under setting [4]; 102 % of control under setting [5]; 86 % of control and 100 % of control and 115 % of control under setting [11]. For the same compound, the T/C runs as follows: under setting [6], 110 % of control; under setting [7], 117 % of control; under setting [12], 103 % of control; under setting [8], 110 % of control; under setting [13], 99 % of control.

In the case of `c1ccc2c(c1)Sc1ccccc1N2CC1CCCN2CCCCC12` (stereo not given), the T/C reads like this: (dose: 12.5 mg/kg/injection, schedule: Q01DX001 (ip), vehicle: Klucel (hydroxypropylcellulose) (HPC)) 106 % of control; (dose: 25.0 mg/kg/injection, schedule: Q01DX001 (ip), vehicle: Klucel (hydroxypropylcellulose) (HPC)) 100 % of control; (dose: 50.0 mg/kg/injection, schedule: Q01DX001 (ip), vehicle: Klucel (hydroxypropylcellulose) (HPC)) 93 % of control.

Regarding `COc1ccccc1C(c1ccccc1OC)N(C)C(C)(C)CO`, the T/C runs as follows: under setting [4], 100 % of control; under setting [5], 91 % of control; under setting [11], 91 % of control.

Consider `O=[N+]([O-])/C=C\c1cc2c3c(c1)CCCN3CCC2`, for which the T/C is 100 % of control (dose: 3.13 mg/kg/injection, schedule: Q01DX001 (ip), vehicle: saline with Tween-80); 100 % of control (dose: 6.25 mg/kg/injection, schedule: Q01DX001 (ip), vehicle: saline with Tween-80); 104 % of control (dose: 12.5 mg/kg/injection, schedule: Q01DX001 (ip), vehicle: saline with Tween-80).

With `O=C(NO)c1cc(O)c(O)c(O)c1`, the T/C reads like this: (dose: 50.0 mg/kg/injection, schedule: Q01DX005 (ip), vehicle: distilled water + Tween-80) 123 % of control; (dose: 200.0 mg/kg/injection, schedule: Q01DX005 (ip), vehicle: distilled water + Tween-80) 150 % of control; (dose: 400.0 mg/kg/injection, schedule: Q01DX005 (ip), vehicle: distilled water + Tween-80) 153 % of control.

For `COC1(c2ccc([N+](=O)[O-])o2)OC1(C)C` (stereo not given), the T/C was 111 % of control under setting [5]; 118 % of control under setting [11]; 113 % of control under setting [6]; 111 % of control under setting [7]; 99 % of control under setting [12]; 117 % of control under setting [8]. Also, the T/C is 107 % of control under setting [13]; 108 % of control (dose: 400.0 mg/kg/injection, schedule: Q01DX009 (ip), vehicle: saline with Tween-80); 109 % of control (dose: 400.0 mg/kg/injection, schedule: Q04DX003 (ip), vehicle: saline with Tween-80).

On to `O=C(NCCCl)N(CCCl)C(=O)Oc1c(Cl)c(Cl)c(Cl)c(Cl)c1Cl`, for which the T/C is 97 % of control (dose: 50.0 mg/kg/injection, schedule: Q01DX005 (ip), vehicle: Klucel (hydroxypropylcellulose) (HPC)); 105 % of control (dose: 100.0 mg/kg/injection, schedule: Q01DX005 (ip), vehicle: Klucel (hydroxypropylcellulose) (HPC)); 91 % of control (dose: 200.0 mg/kg/injection, schedule: Q01DX005 (ip), vehicle: Klucel (hydroxypropylcellulose) (HPC)).

Take `c1c(NC2=NCCO2)cc2c3c1CCCN3CCC2`: the T/C is 104 % of control under setting [5], 118 % of control under setting [11] and 113 % of control under setting [6].

In the case of `NC(=O)NC(=O)/C=C/C(=O)O`, the T/C reads like this: (dose: 25.0 mg/kg/injection, schedule: Q04DX003 (ip), vehicle: saline with Tween-80) 91 % of control; (dose: 50.0 mg/kg/injection, schedule: Q04DX003 (ip), vehicle: saline with Tween-80) 100 % of control; under setting [12], 91 % of control.

`CN=S(=O)(OCC1CCC1COS(=O)(=NC)c1ccc(C)cc1)c1ccc(C)cc1` (stereo not given): the T/C reads like this: under setting [5], 109 % of control; under setting [9], 93 % of control; under setting [11], 100 % of control; under setting [10], 93 % of control; under setting [6], 90 % of control and 120 % of control; (dose: 50.0 mg/kg/injection, schedule: Q01DX009 (ip), vehicle: saline) 90 % of control. Besides, the T/C under setting [7] was 107 % of control and 114 % of control; the T/C (dose: 100.0 mg/kg/injection, schedule: Q01DX009 (ip), vehicle: saline) was 93 % of control; the T/C under setting [8] was 116 % of control.
